{
  "source": "patent US20110189689A1",
  "about": "“RIBOSWITCHES” (priority 2008, published 2011)",
  "origin": "cited, not measured here",
  "key": {"[1]": {"tested_on": "E. col±165 thiM RNA riboswitch", "conditions": "non-phosphorylated form of the thiamine analog"}, "S. cerevisiae": {"tested_on": "S. cerevisiae", "conditions": "presumably by binding to enzymes"}, "[2]": {"tested_on": "TPP-specific riboswitches in bacteria and plants", "conditions": "via interaction with TPP-specific riboswitches in bacteria and plants"}},
  "data": [
    {"smiles": "Cc1ncc(C[n+]2csc(CCO)c2C)c(=O)[nH]1", "note": "[oxythiamine]", "values": [
      {"measurement": "affinity to the thiM RNA riboswitch", "setting": "[1]", "result": "strongly reduced affinity"},
      {"measurement": "growth rate of S. cerevisiae", "setting": "S. cerevisiae", "result": "can reduce the growth rate"}
    ]},
    {"smiles": "Cc1ncc(C[n+]2cccc(CCOP(=O)(O)OP(=O)(O)O)c2C)c(N)n1", "note": "[PTPP, pyrithiamine pyrophosphate]", "values": [
      {"measurement": "antibiotic effect", "setting": "[2]", "result": "exert an antibiotic effect"}
    ]}
  ]
}
